The assay concerns ocular normotensive human patients with diabetic eye disease. Kind of assay: Phase 2 trial: IOP after subcutaneous Compound 1 alone or with intravitreal ranibizumab, diabetic macular edema. The assay is classed as in vivo. How it is done: IOP in patients were measured using a double-masked, parallel-group designed to assess the effects of subcutaneous (SC) Compound 1 (sodium salt) alone, or as an adjunct to intravitreal ranibizumab trial. 144 human subjects with diabetic retinopathy complicated by center-involved diabetic macular edema (DME) were randomized to 3 months of one of 3 treatments: 1) Compound 1 (15 mg) SC twice daily (BID) plus sham monthly intravitreal injection (IVT); 2) Compound 1 SC BID plus ranibizumab (0.3 mg) monthly IVT; and 3) Placebo SC BID+ranibizumab IVT. At baseline, mean age was 61.3±1.3 years; 59% of subjects were male; 82.6% had Type 2 diabetes; mean HBA1c was 7.5%±1.3%; mean best corrected visual acuity was 60.2 ETDRS letters (Snellen 20/63); and mean IOP was 15.7 mmHg±3.4. Ophthalmic safety assessments were performed at baseline and monthly during the 3-month treatment period including a single IOP measurement by applanation tonometry in both the study eye and the fellow eye at each time point. By protocol, all patients had baseline IOP<24 mmHg (ocular normotensive).
In the pre-specified safety analysis, change from baseline IOP was analyzed using a t-test (null hypothesis 0 change from baseline). The level of significance was set at 0.05. A post hoc analysis of the subject level IOP measure was the change from baseline in the average over both eyes within a subject for each timepoint. Statistical testing of each timepoint was completed using ANCOVA with baseline IOP (averaged over both eyes within a subject) as covariate. Additionally, statistical testing averaging across all timepoints was completed using a mixed-model repeated measures ANCOVA. The level of significance was set at 0.05.

The mark [1] stands for this setting: average of study eye and fellow eye, week 4.
Setting [2] is: average of study eye and fellow eye, week 8.
[3] abbreviates: average of study eye and fellow eye, week 12.

Turning to “ranibizumab [Placebo + ranibizumab, reference compound]”, under setting [1], the “Week 4 subject-level IOP change from BL, mean (SD)” value is listed as −0.2 (2.61) mmHg and the “Week 4 subject-level IOP, mean (SD)” value was 15.2 (3.50) mmHg. Moreover, under setting [2], the “Week 8 subject-level IOP change from BL, mean (SD)” value is reported as 0.2 (2.86) mmHg and the “Week 8 subject-level IOP, mean (SD)” value is given as 15.3 (3.31) mmHg. Under setting [3], the “Week 12 subject-level IOP change from BL, mean (SD)” value was 0.0 (3.32) mmHg and the “Week 12 subject-level IOP, mean (SD)” value is 15.5 (3.85) mmHg. Under “fellow eye (FE), week 4”, the “Week 4 IOP change from BL, mean (SD)” value is recorded as −0.3 (3.49) mmHg and the “Week 4 IOP, mean (SD)” value is 15.5 (4.85) mmHg. Also, for the setting “fellow eye (FE), week 8”, the “Week 8 IOP change from BL, mean (SD)” value is recorded as −0.3 (3.44) mmHg and the “Week 8 IOP, mean (SD)” value is 15.5 (4.52) mmHg. For the same substance, under “fellow eye (FE), week 12”, the “Week 12 IOP change from BL, mean (SD)” value was −0.1 (3.62) mmHg and the “Week 12 IOP, mean (SD)” value was 15.7 (5.19) mmHg. For the same substance, where the note is “study eye (SE), week 4”, the “Week 4 IOP change from BL, mean (SD)” value is recorded as −0.1 (2.74) mmHg and the “Week 4 IOP, mean (SD)” value was 15.0 (3.50) mmHg. Also, where the note is “study eye (SE), week 8”, the “Week 8 IOP change from BL, mean (SD)” value is 0.0 (3.25) mmHg and the “Week 8 IOP, mean (SD)” value is recorded as 15.0 (3.61) mmHg. Also, for the setting “study eye (SE), week 12”, the “Week 12 IOP change from BL, mean (SD)” value is reported as 0.1 (3.83) mmHg and the “Week 12 IOP, mean (SD)” value was 15.3 (4.09) mmHg. The “mean change in IOP from baseline” value (study or fellow eye, all time points) is on record as −0.3 to +0.1 mmHg.

For the origin of these results see patent publication US12064420B2, “Tie-2 activators targeting the Schlemm's canal” (EyePoint Pharmaceuticals, Inc., priority 2019, dated 2024).
